Experimental data as given in ChEMBL document CHEMBL5365451, “Discovery of CVN417, a Novel Brain-Penetrant α6-Containing Nicotinic Receptor Antagonist for the Modulation of Motor Dysfunction” (J Med Chem, 2023).
pIC50: −log10 of the molar value. Values belong to the molecule of their own block, whether it stands above or below them. Active and inactive are the calls of the source. The rule behind the calls is not given here.

How the values were obtained:
[1] = Metabolic stability in human liver microsome assessed as clearance at 10 uM incubated upto 2 hrs by LC-MS/MS analysis; format: ADME; details: liver microsomes, read-out: CLH
[2] = Metabolic stability in rat liver microsome assessed as clearance at 10 uM incubated upto 2 hrs by LC-MS/MS analysis; format: ADME; details: liver microsomes, read-out: CLH
[3] = Antagonist activity at human alpha6-alpha3/beta2/beta3 V273S mutant nAChR expressed in HEK293 cells assessed as nicotine-induced intracellular calcium release incubated for 15 mins by FLIPR analysis; format: cell-based; details: HEK293, 0.25 h
[4] = Drug exposure in Sprague-Dawley rat brain at 3 mg/kg, po measured for 2 hrs by LC-MS/MS analysis; format: ADME, organism-based; details: read-out: Drug uptake
[5] = Oral bioavailability in Sprague-Dawley rat 3 mg/kg by LC-MS/MS analysis; format: ADME, organism-based; details: in vivo
[6] = Volume of distribution at steady state in Sprague-Dawley rat at 0.5 mg/kg, iv by LC-MS/MS analysis; format: ADME, organism-based; details: in vivo, read-out: Vdss
[7] = Intrinsic clearance in Sprague-Dawley rat at 0.5 mg/kg, iv by LC-MS/MS analysis; format: ADME, organism-based; details: in vivo
[8] = Metabolic stability in rat liver microsome assessed as clearance preincubated for 60 mins followed by NADPH addition and measured after 60 mins by LC-MS/MS analysis; format: ADME; details: liver microsomes, time 120 min, read-out: CLH
[9] = Metabolic stability in human liver microsome assessed as clearance preincubated for 60 mins followed by NADPH addition and measured after 60 mins by LC-MS/MS analysis; format: ADME; details: liver microsomes, time 120 min, read-out: CLH
[10] = biological target: Neuronal acetylcholine receptor; alpha3/beta4 (Homo sapiens, UniProt P30926+P32297); assay: Antagonist activity at human alpha3/beta4 nAChR expressed in HEK293 cells assessed as nicotine-induced intracellular calcium release incubated for 15 mins by FLIPR analysis; format: cell-based
[11] = biological target: Neuronal acetylcholine receptor; alpha4/beta2 (Homo sapiens, UniProt P17787+P43681); assay: Antagonist activity at human alpha4/beta2 nAChR expressed in HEK293 cells assessed as nicotine-induced intracellular calcium release incubated for 15 mins by FLIPR analysis; format: cell-based
[12] = Plasma protein binding in mouse assessed as unbound fraction by rapid equilibrium dialysis; format: ADME, cell-free
Rattus norvegicus [13] = assay: Protection against tacrine-induced Sprague-Dawley rat tremulous jaw model assessed as decrease in tremor jaw movement at 25 mg/kg, po pretreated with compound for 90 mins followed by tacrine addition and measured after 5 mins; format: functional; set-up: scale not given: the % may be the effect or the level left; details: time 95 min, 1.583 h
Rattus norvegicus [14] = assay: Protection against tacrine-induced po dosed Sprague-Dawley rat tremulous jaw model assessed as decrease in tremor duration pretreated with compound for 90 mins followed by tacrine addition and measured after 5 mins; format: functional, organism-based; details: dose 3-25 mg/kg, time 95.0 min
[15] = Metabolic stability in rat hepatocytes assessed as intrinsic clearance measured per 10^6 cells; format: ADME, cell-based, Hepatocyte
[16] = AUC (0 to infinity) in Sprague-Dawley rat at 10 mg/kg, po by LC-MS/MS analysis; format: ADME, organism-based; set-up: dose 10 mg/kg, route po; details: in vivo
[17] = Cmax in Sprague-Dawley rat at 10 mg/kg, po by LC-MS/MS analysis; format: ADME, organism-based; set-up: dose 10 mg/kg, route po; details: in vivo
[18] = Metabolic stability in human hepatocytes assessed as intrinsic clearance measured per 10^6 cells; format: ADME, cell-based, Hepatocyte
[19] = AUC (0 to infinity) in Sprague-Dawley rat at 1 mg/kg, iv by LC-MS/MS analysis; format: ADME, organism-based; set-up: dose 1 mg/kg, route iv; details: in vivo
[20] = Protein binding in rat brain assessed as unbound fraction by rapid equilibrium dialysis; format: ADME, tissue-based
[21] = Metabolic stability in rat liver microsome assessed as intrinsic clearance preincubated for 60 mins followed by NADPH addition and measured after 60 mins by LC-MS/MS analysis; format: ADME; details: liver microsomes, time 120 min, read-out: CLH
[22] = Plasma protein binding in human assessed as unbound fraction by rapid equilibrium dialysis; format: ADME, cell-free
[23] = biological target: T1, Sodium-dependent noradrenaline transporter (Homo sapiens, UniProt P23975); assay: Binding affinity to human NET
[24] = AUC (0 to infinity) in Sprague-Dawley rat at 0.5 mg/kg, iv by LC-MS/MS analysis; format: ADME, organism-based; set-up: dose 0.5 mg/kg, route iv; details: in vivo
[25] = Metabolic stability in dog liver microsome assessed as intrinsic clearance preincubated for 60 mins followed by NADPH addition and measured after 60 mins by LC-MS/MS analysis; format: ADME, Canis lupus familiaris; details: liver microsomes, time 120 min, read-out: CLH
Brain = assay: Drug concentration in po dosed Sprague-Dawley rat brain measured after 2 hrs by LC-MS/MS analysis; format: functional, organism-based; details: dose 3-25 mg/kg
[26] = Ratio of drug concentration in Sprague-Dawley rat brain to plasma assessed as unbound fraction at 10 mg/kg, po measured after 6 hrs by LC-MS/MS analysis; format: ADME, organism-based; details: read-out: K(p,uu,brain)
Mus musculus [27] = organism: Mus musculus; assay: Anti-parkinson activity in C57BL6/J mouse model assessed as reduction in 10p 50 Hz induced DA release in striatum by fast-scan cyclic voltammetry analysis; format: functional, organism-based
[28] = Protein binding in mouse brain assessed as unbound fraction by rapid equilibrium dialysis; format: ADME, tissue-based
Rattus norvegicus [29] = assay: Protection against tacrine-induced Sprague-Dawley rat tremulous jaw model assessed as decrease in tremor jaw movement at 3 to 25 mg/kg, po pretreated with compound for 90 mins followed by tacrine addition and measured after 5 mins; format: functional, organism-based; details: dose 3-25 mg/kg, time 95.0 min
[30] = biological target: T2, D(4) dopamine receptor (Homo sapiens) (UniProt P21917); assay: Antagonist activity at human D4 receptor relative to control; format: functional; set-up: scale not given: the % may be the effect or the level left; details: filed as antagonist
T2 sequence (whole entry): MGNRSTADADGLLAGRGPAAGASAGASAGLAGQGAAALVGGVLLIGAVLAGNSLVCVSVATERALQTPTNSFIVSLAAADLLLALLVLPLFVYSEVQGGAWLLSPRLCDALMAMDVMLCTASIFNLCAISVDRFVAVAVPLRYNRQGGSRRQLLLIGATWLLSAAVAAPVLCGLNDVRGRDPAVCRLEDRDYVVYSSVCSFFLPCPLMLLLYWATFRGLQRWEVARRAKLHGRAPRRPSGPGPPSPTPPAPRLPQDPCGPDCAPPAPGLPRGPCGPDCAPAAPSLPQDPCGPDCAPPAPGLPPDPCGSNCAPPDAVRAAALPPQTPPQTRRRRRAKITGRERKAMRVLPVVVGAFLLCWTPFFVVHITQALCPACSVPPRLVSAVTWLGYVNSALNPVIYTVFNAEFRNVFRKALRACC

[31] = Metabolic stability in mouse hepatocytes assessed as intrinsic clearance measured per 10^6 cells; format: ADME, cell-based, Hepatocyte
[32] = Half life in Sprague-Dawley rat at 10 mg/kg, po by LC-MS/MS analysis; format: ADME, organism-based; details: in vivo
Mus musculus [33] = organism: Mus musculus; assay: Anti-parkinson activity in C57BL6/J mouse model assessed as reduction in 5p 50 Hz induced DA release in striatum by fast-scan cyclic voltammetry analysis; format: functional, organism-based
[34] = Oral bioavailability in Sprague-Dawley rat at 3 mg/kg by LC-MS/MS analysis; format: ADME, organism-based; details: in vivo
[35] = biological target: Sigma non-opioid intracellular receptor 1 (Cavia porcellus) (UniProt Q60492); assay: Agonist activity at guinea pig sigma 1 relative to control; details: filed as agonist
Rattus norvegicus [36] = organism: Rattus norvegicus; assay: Antagonist activity at rat I2 receptor relative to control; set-up: scale not given: the % may be the effect or the level left; details: filed as antagonist
Mus musculus [37] = organism: Mus musculus; assay: Anti-parkinson activity in C57BL6/J mouse model assessed as reduction in Ip induced DA release in striatum in presence of DHbetaE by fast-scan cyclic voltammetry analysis; format: functional, organism-based
[38] = Metabolic stability in mouse liver microsome assessed as intrinsic clearance preincubated for 60 mins followed by NADPH addition and measured after 60 mins by LC-MS/MS analysis; format: ADME; details: liver microsomes, time 120 min, read-out: CLH
Mus musculus [39] = organism: Mus musculus; assay: Anti-parkinson activity in C57BL6/J mouse model assessed as reduction in Ip induced DA release in striatum by fast-scan cyclic voltammetry analysis; format: functional, organism-based
[40] = Half life in Sprague-Dawley rat at 3 mg/kg, po by LC-MS/MS analysis; format: ADME, organism-based; details: in vivo
[41] = Clearance in Sprague-Dawley rat at 0.5 mg/kg, iv by LC-MS/MS analysis; format: ADME, organism-based; details: in vivo
[42] = Volume of distribution at steady state in Sprague-Dawley rat at 1 mg/kg, iv by LC-MS/MS analysis; format: ADME, organism-based; details: in vivo, read-out: Vdss
[43] = Metabolic stability in dog hepatocytes assessed as intrinsic clearance measured per 10^6 cells; format: ADME, cell-based, Canis lupus familiaris, Hepatocyte
[44] = Oral bioavailability in Sprague-Dawley rat at 10 mg/kg by LC-MS/MS analysis; format: ADME, organism-based; details: in vivo
[45] = Plasma protein binding in rat assessed as unbound fraction by rapid equilibrium dialysis; format: ADME, cell-free
D(4) dopamine receptor = biological target: T3, D(4) dopamine receptor (Homo sapiens, UniProt P21917); assay: Antagonist activity at human D4 receptor; format: functional
T3 sequence (P21917 whole entry): T2 sequence (whole entry)

[46] = biological target: Neuronal acetylcholine receptor subunit alpha-7 (Homo sapiens) (UniProt P36544); assay: Antagonist activity at human alpha7 nAChR at 10 uM relative to control; set-up: scale not given: the % may be the effect or the level left
[47] = biological target: T1, Sodium-dependent noradrenaline transporter; assay: Binding affinity to human NET relative to control
Rattus norvegicus [48] = organism: Rattus norvegicus; assay: Anti-parkinson activity in Sprague-Dawley rat model assessed as decrease in spontaneous firing frequency measured after 15 mins by whole cell patch assay; format: functional, organism-based
[49] = Metabolic stability in human liver microsome assessed as intrinsic clearance preincubated for 60 mins followed by NADPH addition and measured after 60 mins by LC-MS/MS analysis; format: ADME; details: liver microsomes, time 120 min, read-out: CLH

Sequence of Neuronal acetylcholine receptor; alpha4/beta2 (P17787 whole entry): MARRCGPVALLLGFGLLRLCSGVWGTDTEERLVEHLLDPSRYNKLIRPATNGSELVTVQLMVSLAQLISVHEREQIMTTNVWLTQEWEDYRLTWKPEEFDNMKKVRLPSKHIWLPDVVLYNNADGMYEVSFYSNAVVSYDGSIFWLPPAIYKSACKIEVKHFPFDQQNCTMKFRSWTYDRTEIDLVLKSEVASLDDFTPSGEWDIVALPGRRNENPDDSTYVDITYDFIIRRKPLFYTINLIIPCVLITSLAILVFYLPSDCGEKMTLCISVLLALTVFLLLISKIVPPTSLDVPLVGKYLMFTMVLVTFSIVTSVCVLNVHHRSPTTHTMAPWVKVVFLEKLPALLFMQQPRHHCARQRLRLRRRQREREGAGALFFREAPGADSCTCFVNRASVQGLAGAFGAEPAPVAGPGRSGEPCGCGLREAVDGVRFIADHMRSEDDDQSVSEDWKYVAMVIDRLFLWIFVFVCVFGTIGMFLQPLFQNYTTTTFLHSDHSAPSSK
Sequence of Neuronal acetylcholine receptor; alpha4/beta2 (P43681 whole entry): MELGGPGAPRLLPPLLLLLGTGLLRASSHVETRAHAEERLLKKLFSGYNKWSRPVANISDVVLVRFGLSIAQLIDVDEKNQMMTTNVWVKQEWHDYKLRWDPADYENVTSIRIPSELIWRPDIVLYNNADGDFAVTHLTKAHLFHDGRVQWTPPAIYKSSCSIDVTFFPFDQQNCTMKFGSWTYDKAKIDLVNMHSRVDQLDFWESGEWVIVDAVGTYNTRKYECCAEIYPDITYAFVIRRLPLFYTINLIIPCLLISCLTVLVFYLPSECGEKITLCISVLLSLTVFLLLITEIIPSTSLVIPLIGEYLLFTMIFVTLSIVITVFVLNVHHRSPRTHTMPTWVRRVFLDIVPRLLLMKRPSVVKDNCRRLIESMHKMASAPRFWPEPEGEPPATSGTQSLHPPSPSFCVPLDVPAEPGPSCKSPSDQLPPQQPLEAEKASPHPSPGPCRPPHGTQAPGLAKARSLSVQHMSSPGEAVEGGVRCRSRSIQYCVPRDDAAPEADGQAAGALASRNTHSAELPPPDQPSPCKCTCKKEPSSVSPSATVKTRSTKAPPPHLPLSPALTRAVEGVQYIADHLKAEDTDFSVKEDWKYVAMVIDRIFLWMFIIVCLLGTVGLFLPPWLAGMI
Sequence of Neuronal acetylcholine receptor; alpha3/beta4 (P30926 whole entry): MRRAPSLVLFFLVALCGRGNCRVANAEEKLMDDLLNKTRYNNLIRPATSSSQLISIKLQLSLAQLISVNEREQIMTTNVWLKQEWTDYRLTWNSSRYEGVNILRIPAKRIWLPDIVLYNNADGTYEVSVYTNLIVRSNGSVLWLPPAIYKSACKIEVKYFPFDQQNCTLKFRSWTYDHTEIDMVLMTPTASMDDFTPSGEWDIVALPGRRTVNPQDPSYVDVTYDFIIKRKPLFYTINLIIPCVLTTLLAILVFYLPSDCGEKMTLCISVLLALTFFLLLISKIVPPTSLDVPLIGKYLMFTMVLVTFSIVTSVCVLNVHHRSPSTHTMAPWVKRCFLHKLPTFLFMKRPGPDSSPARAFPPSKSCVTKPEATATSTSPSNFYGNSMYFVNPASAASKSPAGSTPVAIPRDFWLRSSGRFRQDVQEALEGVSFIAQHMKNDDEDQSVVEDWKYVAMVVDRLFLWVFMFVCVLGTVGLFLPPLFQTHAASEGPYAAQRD
Sequence of Neuronal acetylcholine receptor; alpha3/beta4 (P32297 whole entry): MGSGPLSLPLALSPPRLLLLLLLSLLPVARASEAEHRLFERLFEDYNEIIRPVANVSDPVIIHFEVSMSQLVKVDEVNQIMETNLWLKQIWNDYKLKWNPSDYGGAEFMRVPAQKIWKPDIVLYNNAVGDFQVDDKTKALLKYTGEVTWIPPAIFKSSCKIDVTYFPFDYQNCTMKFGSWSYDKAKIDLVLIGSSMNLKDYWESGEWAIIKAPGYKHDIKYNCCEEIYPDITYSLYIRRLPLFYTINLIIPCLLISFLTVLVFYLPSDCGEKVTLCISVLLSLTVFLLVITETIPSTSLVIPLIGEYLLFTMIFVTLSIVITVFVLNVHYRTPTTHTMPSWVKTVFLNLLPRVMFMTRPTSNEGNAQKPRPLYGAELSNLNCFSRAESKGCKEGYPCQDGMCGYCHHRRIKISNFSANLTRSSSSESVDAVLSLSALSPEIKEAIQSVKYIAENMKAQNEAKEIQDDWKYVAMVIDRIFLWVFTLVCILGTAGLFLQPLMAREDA
T1 sequence (P23975 whole entry): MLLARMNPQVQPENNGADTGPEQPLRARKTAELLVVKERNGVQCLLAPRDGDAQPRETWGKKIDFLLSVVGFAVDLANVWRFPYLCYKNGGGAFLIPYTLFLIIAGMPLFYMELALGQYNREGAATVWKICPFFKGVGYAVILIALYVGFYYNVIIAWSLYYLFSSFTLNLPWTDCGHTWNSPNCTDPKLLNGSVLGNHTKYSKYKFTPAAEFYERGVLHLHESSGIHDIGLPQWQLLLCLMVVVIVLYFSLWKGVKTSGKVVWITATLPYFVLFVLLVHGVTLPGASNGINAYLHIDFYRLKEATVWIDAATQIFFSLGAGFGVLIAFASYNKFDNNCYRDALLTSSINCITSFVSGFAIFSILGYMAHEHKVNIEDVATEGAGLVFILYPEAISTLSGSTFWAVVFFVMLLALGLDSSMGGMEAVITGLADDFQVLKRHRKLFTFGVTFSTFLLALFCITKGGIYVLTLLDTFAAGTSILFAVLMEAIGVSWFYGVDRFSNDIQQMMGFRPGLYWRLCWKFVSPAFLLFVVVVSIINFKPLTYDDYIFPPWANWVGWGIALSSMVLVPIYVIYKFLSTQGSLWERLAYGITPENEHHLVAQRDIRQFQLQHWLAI
Sequence of Sigma non-opioid intracellular receptor 1 (Cavia porcellus) (Q60492 whole entry): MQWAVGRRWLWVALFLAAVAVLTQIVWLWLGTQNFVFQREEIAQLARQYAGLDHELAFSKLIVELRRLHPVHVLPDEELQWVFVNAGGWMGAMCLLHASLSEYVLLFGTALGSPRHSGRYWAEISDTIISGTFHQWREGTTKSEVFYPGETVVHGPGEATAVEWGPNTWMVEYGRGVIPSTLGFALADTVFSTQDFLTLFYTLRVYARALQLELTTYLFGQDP
Sequence of Neuronal acetylcholine receptor subunit alpha-7 (Homo sapiens) (P36544 whole entry): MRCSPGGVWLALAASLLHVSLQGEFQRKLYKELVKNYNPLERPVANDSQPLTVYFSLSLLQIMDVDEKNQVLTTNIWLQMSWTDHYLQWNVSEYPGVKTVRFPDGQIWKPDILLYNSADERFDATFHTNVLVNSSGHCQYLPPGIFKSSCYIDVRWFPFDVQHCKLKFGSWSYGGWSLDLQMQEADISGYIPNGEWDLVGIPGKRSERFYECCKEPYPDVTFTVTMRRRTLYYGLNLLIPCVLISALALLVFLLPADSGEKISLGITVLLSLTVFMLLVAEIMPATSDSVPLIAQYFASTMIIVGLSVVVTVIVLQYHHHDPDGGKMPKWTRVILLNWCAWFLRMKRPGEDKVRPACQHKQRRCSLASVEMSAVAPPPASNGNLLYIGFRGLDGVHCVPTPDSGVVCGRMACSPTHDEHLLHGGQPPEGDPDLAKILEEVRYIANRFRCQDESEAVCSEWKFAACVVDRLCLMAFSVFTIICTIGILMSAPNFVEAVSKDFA

SMILES: Cc1ccc(C)c(Cn2nc(C)cc2C(=O)N[C@@H]2C[C@H]3CCC[C@@H](C2)N3C)c1
- pIC50 [3]: 6.15

SMILES: CN(C)C1(CNC(=O)c2cc(-c3ccc(C(F)(F)F)cc3)n(C)n2)CCCC1
- concentration at 2 h [4]: 30 nM
- bioavailability [5]: 27.8%
- Vd [6]: 18.7 L/kg
- CL [7]: 81.8 mL/min/kg
- pIC50 [10]: 5.85
- pIC50 [3]: 6.74
- pIC50 [11]: 6.55

Now those with a higher pIC50 [3], led by results:

- microsomal CLint at 10 µM [1]: 75.5 µL/min/mg
- microsomal CLint at 10 µM [2]: 204 µL/min/mg
- pIC50 [3]: 6.94
SMILES: COc1ccc(-c2cc(C(=O)N[C@H]3CN(C)CCC3(F)F)nn2C)c(Cl)c1

- fraction unbound [12]: 0.25
- CLint [15]: 20.8 µL/min/1e6 cells
- AUC(0-inf) [16]: 775 ng·h/mL
- Cmax [17]: 350 nM
- CLint [18]: 3.7 µL/min/1e6 cells
- AUC [19]: 13.5 ng·h/mL
- fraction unbound [20]: 0.068
- microsomal CLint [21]: 31.2 µL/min/mg
- concentration at 2 h [4]: 1820 nM
- fraction unbound [22]: 0.3
- pIC50 [23]: 4.35
- AUC(0-inf) [24]: 205 ng·h/mL
- microsomal CLint [25]: 27.7 µL/min/mg
- Vd [6]: 12.3 L/kg
- Kp uu at 6 h [26]: 1.4
- fraction unbound [28]: 0.053
- Activity [30]: 90%
- CLint [31]: 25.1 µL/min/1e6 cells
- half-life [32]: 5.9 h
- bioavailability [34]: 43.8%
- Activity [35]: 51%
- Activity (Rattus norvegicus [36]): 84%
- microsomal CLint [38]: 33.3 µL/min/mg
- half-life [40]: 7.8 h
- clearance [41]: 38.2 mL/min/kg
- Vd [42]: 11.4 L/kg
- pIC50 [10]: 5.59
- CLint [43]: 32.3 µL/min/1e6 cells
- bioavailability [44]: 11%
- fraction unbound [45]: 0.202
- pIC50 (D(4) dopamine receptor): 5.89
- pIC50 [3]: 7.07
- Activity [46]: 13%
- Activity [47]: 62%
- microsomal CLint [49]: 2.8 µL/min/mg
- pIC50 [11]: 6.18
SMILES: COc1ccc(-c2cc(C(=O)N[C@H]3CCCN(C)C3)nn2C)c(Cl)c1
- Activity (Rattus norvegicus [13]): 18.9%
- Activity (Rattus norvegicus [14]): Dose-Dependent Effect
- Drug uptake (Brain): Dose-Dependent Effect
- Activity (Mus musculus [27]): Active
- Activity (Rattus norvegicus [29]): Active
- Activity (Mus musculus [33]): Active
- Activity (Mus musculus [37]): Active
- Activity (Mus musculus [39]): Active
- Activity (Rattus norvegicus [48]): Active

- concentration at 2 h [4]: 524 nM
- bioavailability [5]: 82%
- Vd [6]: 29.8 L/kg
- CL [7]: 64.9 mL/min/kg
- microsomal CLint [8]: 3.1 µL/min/mg
- microsomal CLint [9]: 3.1 µL/min/mg
- pIC50 [10]: 6.35
- pIC50 [3]: 7.22
- pIC50 [11]: 5.50
SMILES: Cn1nc(C(=O)NCCN2CCCCC2)cc1-c1ccc(C(F)(F)F)cc1
